Here are results for one substance from US20100298377A1, “NOVEL SUBSTITUTED INDAZOLES, THE PREPARATION THEREOF AND USE OF SAME IN THERAPEUTICS” (SANOFI-AVENTIS, priority 2007, published 2010).

The test system of experiment [1] is MCF7 cells (human breast carcinoma cells). In words: Proliferation of MCF7 cells, intracellular ATP, CellTiter-Glo test. In kind it is cell-based. The following applies: 96 hours. The text has this:
(§1) b. Study of the Proliferation of Human Tumoral MIA PaCa-2, C-433, LnCaP and MCF7 Cells via Assay of the Intracellular ATP Using the Celltiter-Glo™ Test
(§2) The kit CellTiter-Glo™ for measuring cell viability via luminescence ([…]) is a homogeneous method for determining the number of viable cells in culture, based on quantification of the ATP present in the cells, and which indicates the presence of metabolically active cells.
(§3) The cell lines used in this test were the following: MIA PaCa-2 cells (human pancreatic carcinoma cells, ATCC, CRL-1420), C-433 cells (human Ewing sarcoma cells, DSMZ, ACC 268), LNCaP clone FGC cells (human prostate carcinoma cells, ATCC, CRL-1740), MCF7 cells (human breast carcinoma cells, ECACC, #86012803). The cells MIAPaCa-2 and LNCaP were cultured in D-MEM culture medium (Invitrogen Gibco, #419656-039) containing 10% foetal calf serum (FCS, Invitrogen Gibco, #10500-064) and 2 mM L-Glutamine (Invitrogen Gibco, #25030-024); the C-433 cells were cultured in MCCoy's 5A culture medium (Invitrogen Gibco, #26600-023)/RPMI 1640 (Invitrogen Gibco, #31870-025) (50/50) containing 10% FCS and 2 mM L-glutamine; the MCF7 cells were cultured in EMEM culture medium (EMEM, Biowhittaker, Lonza, #BE12-662F) containing 10% FCS and 2 mM L-Glutamine.
(§4) Evaluation of the Cell Viability via Luminescence Measurement: Celltiter-Glo™ Test
(§5) On day 1, the cells were inoculated at 1000 (C-433), 2500 (MCF7) and 10000 (LNCaP and MIA PaCa-2) cells per well in black-bottomed 96-well microplates (NUNC fluoronunc, Fisherbioblock 2311K) in 135 μl of whole culture medium and incubated at 37° C., 5% CO2, for 3 to 6 hours. The cells were then incubated with increasing concentrations of molecules diluted in dimethyl sulfoxide (DMSO, Sigma D2650). The molecules were added in a volume of 15 μl of a 10-fold concentrated solution in a final volume of 150 μl, the final percentage of DMSO being 0.1%. The cells were incubated at 37° C., 5% CO2, for 96 hours. After 4 days of treatment with the molecules, the CellTiter-Glo™ was performed by following the manufacturer's instructions (Kit Celltiter-Glo Luminescent, PROMEGA #G7571). Briefly, the cell plates were equilibrated for about 30 minutes at RT and 100 μl per well of Celltiter-Glo reagent were added. The cells were incubated for 1 hour at RT for lysis of the cells and stabilization of the signal. The intracellular ATP was quantified by measuring the luminescence in rlu units (relative luminescence units), 96 hours after initiation of the treatment, using a luminescence counter (Wallac). The tests were performed in six replicates.
(§6) i) the mean±s.e.m. of each series of well replicates was calculated;
(§7) ii) the maximum response is given by positive control wells containing untreated cells; this control was performed in 12 replicates;
(§8) iii) the minimum response is given by cell-free and untreated negative control wells; this control was performed in 6 replicates;
(§9) iv) using these maximum (100%) and minimum (0%) response values, respectively, the data were normalized to give a percentage relative to the maximum response;
(§10) The IC50 values were calculated by […] with the XLfit software (IDBS, UK) using formula 205.

The target in experiment [2] is AKT1 (Homo sapiens, UniProt P31749, S473D). In words: Determination of the IC50 for AKT1 (HTRF). In kind it is biochemical. The following applies: AKT1 without PH domain, activated by PDK1. The procedure, abridged: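 HTRF assay of AKT1 (S473D) kinase activity on a biotinylated peptide substrate, with 100 μM ATP and 10 μM peptide in the initiating solution.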
Chain of AKT1 (P31749 118-480 S473D limits assumed): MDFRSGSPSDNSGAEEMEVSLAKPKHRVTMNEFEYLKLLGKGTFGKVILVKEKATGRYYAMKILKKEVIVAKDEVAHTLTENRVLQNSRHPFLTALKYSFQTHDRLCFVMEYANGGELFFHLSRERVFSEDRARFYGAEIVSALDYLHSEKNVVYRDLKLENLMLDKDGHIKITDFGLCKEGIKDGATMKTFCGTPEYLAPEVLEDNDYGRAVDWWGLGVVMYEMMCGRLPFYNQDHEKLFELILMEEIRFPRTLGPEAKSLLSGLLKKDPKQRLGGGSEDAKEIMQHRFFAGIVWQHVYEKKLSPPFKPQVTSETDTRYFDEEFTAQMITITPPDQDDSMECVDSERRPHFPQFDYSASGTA
Background: TR-FRET usually uses a lanthanide donor and a delayed reading to cut background.

Experiment [3] concerns MEF-IGF1 murine fibroblast cells. In words: IGF1-dependent proliferation of MEF-IGF1 cells via incorporation of [14C]-thymidine. The class given is cell-based. The following applies: [14C]-thymidine incorporation, IGF1 stimulated, 72 hours; read-out: IC50 MEF-IGF.
Description: a. Study of the IGF1-Dependent Proliferation of MEF-IGF1 Murine Fibroblast Cells Measured via Incorporation of [14C]-Thymidine
This test is based on the incorporation of [^14C]-thymidine into the DNA of the cells for the S phase of the cell cycle during cell division. The cell line used in this test is the MEF/3T3 Tet-Off Clone 18 line obtained by stable transfection of the human receptor IGF1R in murine MEF/3T3 Tet-Off fibroblasts. To measure the IGF1-dependent cell proliferation, the cells were deprived of serum and cultured for 3 days in the serum-free culture medium in the presence of the growth factor IGF1 which stimulates the proliferation of MEF-IGF1 cells.
Test of Incorporation of [^14C]-Thymidine into MEF-IGF1 Cells
On day 1, the cells were inoculated with 7500 cells per well in Cytostar 96-well microplates (Amersham (GE) RPNQ0162) in 200 μl of EMEM medium (EMEM, Biowhittaker, #BE12-662F) containing 10% foetal calf serum (FCS, TET-BD Biosciences Tet System Approved FBS US-Sourced, #8630-1) and 1% PSG (Penicillin-Streptomycin-Glutamine (PSG), Gibco #10378-016), and incubated at 37° C., 5% CO2, for 24 hours. On day 2, the cells were washed in the FCS-free EMEM culture medium containing 1% PSG, and incubated in 170 μl of this serum-free culture medium at 37° C., 5% CO2, for 24 hours. On day 3, the cells were incubated with 10 μl of IGF1 (2 μg/ml of final concentration; recombinant human IGF-1, R & D Systems, #291-G1), 10 μl (0.1 μCi) of [^14C]-Thymidine (NEN NEC-568) plus 10 μl of increasing concentrations of the test molecules, diluted in dimethyl sulfoxide (DMSO, Sigma D2650). The molecules were added in a volume of 10 μl of a 20-fold concentrated solution in a final volume of 200 μl, the final percentage of DMSO being 0.1%. The treated cells were incubated at 37° C., 5% CO2, for 72 hours. The incorporation of [^14C]-Thymidine was quantified in cpm units (counts per minute) by counting the radioactivity 72 hours after the start of the treatment, using a Micro-Beta radioactivity counter (Perkin-Elmer). The tests were performed in duplicate.
as §6
ii) the background noise is calculated by preparing cell-free, IGF1-free and untreated control wells; this control was performed in 4 replicates. The background noise was removed at each measurement;
iii) the maximum response is given by positive control wells containing cells in the presence of IGF1 but untreated; this control was performed in 4 replicates;
iv) the minimum response is given by negative control wells containing IGF1-free and untreated cells; this control was performed in 4 replicates;
as §10
(Uptake of a labelled nucleoside into DNA is a usual measure of proliferation.)

The test system of experiment [4] is LNCaP clone FGC cells (human prostate carcinoma cells). In words: Proliferation of LNCaP cells, intracellular ATP, CellTiter-Glo test. The class given is cell-based. The following applies: 96 hours.
Description: as §1, §2, §3, §4, §5, §6, §7, §8, §9, §10

The subject of experiment [5] is C-433 cells (human Ewing sarcoma cells). In words: Proliferation of C-433 cells, intracellular ATP, CellTiter-Glo test. The class given is cell-based. The following applies: 96 hours.
Description: as §1, §2, §3, §4, §5, §6, §7, §8, §9, §10
A general note: In ATP-based viability assays light output follows the ATP content of the culture.

Turning to “(7-Fluoro-1H-indazol-5-yl)-(S)-(3,4-dichlorophenyl)-(S)-piperid-2-ylmethyl carbamate [Ex 48]”, the IC50 was 1500 nM in experiment [1]; less than 100 nM in experiment [2]; 295 nM in experiment [3]; 1350 nM in experiment [4]; 505 nM in experiment [5].

In general, IC50 refers to the concentration that gives 50% inhibition.
